The record followed here is ChEMBL document CHEMBL4385613, “Discovery of Conformational Control Inhibitors Switching off the Activated c-KIT and Targeting a Broad Range of Clinically Relevant c-KIT Mutants” (J Med Chem, 2019).

For orientation: GI50 means the concentration at which growth is held to half of that of the control. As usually defined, the IC50 is the concentration needed to halve the response being measured.

Active and inactive are the calls of the source. The rule behind the calls is not given here. Bounds are passed on as bounds.

The test system of test [1] is GISTT1. Briefly: Antiproliferative activity against human GISTT1 cells harboring heterozygous V560-Y578 del mutation assessed as reduction in cell viability by methylene blue staining based assay. The class given is functional.
The subject of test [2] is GISTT1. Briefly: Antiproliferative activity against human GISTT1 cells harboring heterozygous V560-Y578 deletion mutant assessed as reduction in cell viability by MTS assay. The class given is functional. (Tetrazolium assays rely on reduction of a dye to a coloured formazan, in cell work by metabolically active cells.)
Test [3] concerns the target Mast/stem cell growth factor receptor Kit (Homo sapiens, UniProt P10721). Briefly: Inhibition of recombinant human N-terminal 6x-His-tagged c-KIT (547 to 935 residues)/(694 to 753 residues deletion) expressed in baculovirus infected Sf9 insect cells assessed as decrease in poly (Glu,Tyr) 4:1 phosphorylation measured after 150 mins in presence of ATP by ADP-glo based luminescence assay. For orientation: ADP-Glo turns the ADP formed in a reaction into a luminescent signal.

Test [4] relates to GIST430. Briefly: Antiproliferative activity against human GIST430 cells harboring c-KIT exon 11 primary in-frame V560-L576 deletion mutant and exon 13 heterozygous secondary missense V654A mutant assessed as reduction in cell viability by MTS assay. The class given is functional.
The subject of test [5] is GIST430. Briefly: Antiproliferative activity against human GIST430 cells harboring c-KIT exon 11 primary in-frame V560-L576 deletion mutant and exon 13 heterozygous secondary missense V654A mutant assessed as reduction in cell viability by methylene blue staining based assay. The class given is functional.
Test [6] has as its system GIST882. Briefly: Antiproliferative activity against human GIST882 cells harboring c-KIT exon 13 homozygous primary K642E mutant assessed as reduction in cell viability by methylene blue staining based assay. The class given is functional.
Test [7] relates to GIST430. Briefly: Antitumor activity against human GIST430 cells harboring c-KIT exon 11 primary in-frame V560-L576 deletion mutant and exon 13 heterozygous secondary missense V654A mutant xenografted in NOD-SCID mouse assessed as tumor growth inhibition at 40 mg/kg, po administered for 2 weeks with 2 days rest after day 5 and measured thrice per week up to 21 days during compound dosing. The class given is functional, organism-based.

Test [8] deals with GIST48. Briefly: Antiproliferative activity against human GIST48 cells harboring c-KIT exon 11 homozygous primary missense V560D mutant and exon 17 heterozygous secondary D820A mutant assessed as reduction in cell viability by methylene blue staining based assay. The class given is functional.
For test [9], the system named is GIST882. Briefly: Antiproliferative activity against human GIST882 cells harboring c-KIT exon 13 homozygous primary K642E mutant assessed as reduction in cell viability by MTS assay. The class given is functional.
For test [10], the system named is GIST430. Briefly: Antitumor activity against human GIST430 cells harboring c-KIT exon 11 primary in-frame V560-L576 deletion mutant and exon 13 heterozygous secondary missense V654A mutant xenografted in NOD-SCID mouse assessed as tumor regression at 40 mg/kg, po administered for 2 weeks with 2 days rest after day 5 and measured thrice per week up to 21 days during compound dosing. The class given is functional, organism-based.

Test [11] relates to GIST48. Briefly: Antiproliferative activity against human GIST48 cells harboring c-KIT exon 11 homozygous primary missense V560D mutant and exon 17 heterozygous secondary D820A mutant assessed as reduction in cell viability by MTS assay. The class given is functional.

Turning to `CCc1cc(NC(=O)NCCCc2cnc(Nc3cc(N4CCN(CC)CC4)nc(C)n3)s2)no1`, the GI50 in the test with GISTT1 [1] and in the test on GISTT1 [2] was 10 nM throughout. The IC50 in test [3] worked out at 50 nM.

On to `CCc1cc(NC(=O)N2CC=C(c3cnc(Nc4cc(N5CCN(CC)CC5)nc(C)n4)s3)CC2)no1`, for which the 50% growth inhibitory concentration (GI50) in the test with GISTT1 [1] and in the test with GISTT1 [2] was 4.9 nM each time. The IC50 in [3] came out at 82 nM.

As for `CCc1cc(NC(=O)Nc2ccc(-c3cnc(Nc4cc(N5CCN(CCO)CC5)ncn4)s3)cc2)no1`, the GI50 in the test on GISTT1 [1] and in the test on GISTT1 [2] was 3.3 nM throughout. For the same compound, the IC50 in test [3] turned out to be 71 nM.

Regarding `CCN(CC)CCNC(=O)c1c(C)[nH]c(/C=C2\C(=O)Nc3ccc(F)cc32)c1C` [SUNITINIB], the GI50 in the test with GISTT1 [1] was 38 nM; in the test on GIST430 [4], 47 nM; in the test on GIST430 [5], 47 nM; with GIST882 [6], 64 nM; in the test on GISTT1 [2] it was 38 nM; in the test on GIST48 [8], 2000 nM. Further, the figures for the GI50 in the test with GIST882 [9] and in the test with GIST48 [11] were 64 nM and 2000 nM, respectively. The TGI entry in the test on GIST430 [7] is “Active”. The outcome with GIST430 [10] was inactive.

On to `CCN1CCN(c2cc(Nc3ncc(-c4ccc(NS(=O)(=O)c5ccccc5)cc4)s3)nc(C)n2)CC1`, for which the concentration for 50% growth inhibition (GI50) with GISTT1 [1] and with GISTT1 [2] was 42 nM throughout. For the same compound, the 50% inhibitory concentration (IC50) in test [3] is 54 nM.

For `CCc1cc(NC(=O)Nc2ccc(-c3cnc(Nc4cc(N5CCC(N)C5)nc(C)n4)s3)cc2)no1` (configuration not stated), the 50% growth inhibitory concentration (GI50) in the test on GISTT1 [1] and in the test with GISTT1 [2] was 6.4 nM each time. Besides, the IC50 in test [3] was 15 nM.

For `CCc1cc(NC(=O)NCC#Cc2cnc(Nc3cc(N4CCN(CC)CC4)ncn3)s2)no1`, the GI50 with GISTT1 [1] and in the test with GISTT1 [2] was 9.9 nM throughout. Moreover, in test [3], the IC50 was found to be 38 nM.

Consider `CCc1cc(NC(=O)Nc2ccc(-c3csc(Nc4cc(N5CCN(CC)CC5)nc(C)n4)n3)cc2)no1`, for which the GI50 with GISTT1 [1] and in the test with GISTT1 [2] was more than 1000 nM throughout. Besides, in [3], the IC50 is 950 nM.

Turning to `CCc1cc(NC(=O)Nc2ccc(-c3sc(Nc4cc(N5CCN(CC)CC5)ncn4)nc3C)cc2)no1`, the GI50 with GISTT1 [1] and in the test with GISTT1 [2] was 3.3 nM each time. In addition, in test [3], the IC50 stood at 122 nM.

As for `CCc1cc(NC(=O)Nc2ccc(-c3cnc(Nc4nc(C)nc(N5CCN(CC)CC5)n4)s3)cc2)no1`, the GI50 in the test on GISTT1 [1] and with GISTT1 [2] was 13 nM throughout. Moreover, in test [3], the IC50 stood at 86 nM.

Consider `CCN1CCN(c2cc(Nc3ncc(-c4ccc(NC(C)=O)cc4)s3)ncn2)CC1`, for which the GI50 in the test on GISTT1 [1] and with GISTT1 [2] was 25 nM each time. In test [3], the IC50 stood at 130 nM.

For `CCc1cc(NC(=O)Nc2ccc(-c3cnc(Nc4cc(N5CCN(CC)CC5)ncn4)s3)cn2)no1`, the GI50 in the test on GISTT1 [1] and with GISTT1 [2] was 1 nM throughout. The half-maximal inhibitory concentration (IC50) in test [3] came to 43 nM.

With `CCc1cc(NC(=O)Nc2ccc(-c3cnc(Nc4cc(N5CCN(CC)CC5)nc(C)n4)s3)cc2)no1`, the GI50 with GISTT1 [1] and in the test with GISTT1 [2] was 3.2 nM in each case. The concentration for half-maximal inhibition (IC50) in test [3] amounted to 97 nM.

Regarding `Cc1nc(Nc2ncc(-c3ccc(NC(=O)Nc4ccccc4)cc3)s2)cc(N2CCN(C)CC2)n1`, the GI50 with GISTT1 [1] and with GISTT1 [2] was 5.4 nM in each case. Further, the IC50 in test [3] amounted to 20 nM.

As for `CCN1CCN(c2cc(Nc3ncc(-c4ccc(NC(N)=O)cc4)s3)ncn2)CC1`, the concentration for 50% growth inhibition (GI50) with GISTT1 [1] and in the test with GISTT1 [2] was 86 nM in each case. The IC50 in [3] was determined as 98 nM.
